The subject of data set [1] is CT DNA. Briefly: Binding study with CT DNA by UV-vis spectroscopy. Details: species or system calf. Here is the method:
Initially, the UV–vis spectra of complexes 1–5 (2.5 × 10^−5 – 1 × 10^−4 M) were recorded in the presence of incremental amounts of CT DNA (Figure 4), and the changes of the λmax of the bands observed in the spectra of the complexes were monitored as a means to study the interaction between complexes and CT DNA [50] and to calculate the corresponding DNA-binding constants (Kb). As observed, in the UV–vis spectra of the complexes, at least two bands were observed: band I in the range 314–339 nm and band II in the region 380–428 nm. […] These features indicate the interaction of the complexes with CT DNA [51], but may not provide sufficient information to reveal the possible interaction mode. Therefore, for the elucidation of the CT DNA interaction mode, further experiments involving DNA-viscosity measurements and competitive studies with EB were performed. […]
S2Binding studies with CT DNA
The interaction of the compounds with CT DNA was studied by UV-vis spectroscopy, viscosity measurements a nd via competit ive stud ie s with EB by fl uorescence […]
S2.1 Binding study with CT DNA by UV -vis spectroscopy
The interaction of the compounds with CT DNA has been studied by UV-vis spectroscopy in order to investigate the possible binding modes to CT DNA and to calculate the DNA-binding constants (Kb). The Kb constants (in M-1) were determined by the Wolfe-Shimer equation (eq. S1) [S3] and the plots [DNA]/(εA-εf) versus [DNA] using the UV-vis spectra of the compounds (20 -100 μM) recorded for a constant concentration with increasing concentrations of CT DNA for diverse [complex]/[DNA] mixing ratios (= r ).
Control experiments with DMSO were performed and no changes in the spectra of CT DNA were observed. […]
[DNA] = [DNA] + 1 (eq. S1) […]
where [DNA] is the concentration of DNA in base pa irs, εA = Aobsd/[compound ], εf = the extinction coefficient for the free compound and ε b = the extinction coefficient for the compound in the fully bound form. Kb is given by the ratio of slope to the y intercept in plots [DNA]/(εA-εf) versus[DNA]. […]

Data set [2] can be described thus: Solubility in solvents. The format is physicochemical.
Data set [3] in a line: ABTS radical cation scavenging assay. The format is biochemical. The conditions noted are these: compound 0.1 mM, 1 min. From the text: For the above reasons, the antioxidant ability of 5–F–saloH and Cu(II) complexes 1–5 has been evaluated via their scavenging activity towards DPPH and ABTS radicals, as well as the ability to reduce H2O2, and in comparison with that of well-known antioxidant agents such as nordihydroguaiaretic acid (NDGA), butylated hydroxytoluene (ΒHΤ), 6–hydroxy–2,5,7,8–tetramethylchromane–2–carboxylic acid (trolox) and L–ascorbic acid (these are the most commonly used standard reference antioxidant agents). The DPPH-radical assay was developed in the 1950s and this method has been used to assess the antioxidant capacity of several metal complexes. The DPPH–scavenging ability of compounds has often been related to their ability to prevent ageing, cancer and inflammation. The ability of a compound to scavenge the cationic ABTS radicals (ABTS^+●) has been considered a measure of its total antioxidant activity. Further, hydrogen peroxide has the ability to penetrate biological membranes and, although it is not very reactive itself, it can sometimes be toxic since it may give rise to hydroxyl radicals in cells. For this reason, the removal of H2O2 is very important for the protection of living systems. When a compound is incubated with H2O2 using a peroxidase assay system, the loss of H2O2 can be measured.
S1 Antioxidant activity assay
The antioxidant activity of the compounds was evaluated via their ability to scavenge in vitro free radicals such as DPPH and ABTS and to reduce H 2O2. All the experiments were carried out at least in triplicate and the standard deviation of absorbance was less than 10% of the mean. […]
S1.2 Assay of radical cation ABTS-scavengin g activity
The ABTS assay was performed to determine the activity of the compounds to scavenge the radical cation ABTS. Initially, a water solution of ABTS was prepared (2 mM). ABTS radical cation (ABTS+·) was produced by the reaction of ABTS stock solution with potassium persulfate (0.17 mM) and the mixture was stored in the dark at room temperature for 12-16 h before its use. The ABTS was oxidized incompletely because the stoichiometric reaction ratio of ABTS and potassium persulfate is 1:0.5. The absorbance became maximal and stable only after more than 6 h of reaction although the oxidation of the ABTS started immediately. The radical was stable in this form for more than 2 days when allowed to stand in the dark at room temperature. Afterwards, the ABTS+· solution was diluted in ethanol to an absorbance of 0.70 at 734 nm and 10 μL of diluted compounds or standards (0.1 mM) in DMSO were added. The absorbance was recorded out exactly 1 min after init ial m ix in g [S 1]. The ABTS radical scavenging act ivit y was expressed as the percentage inhibition of the absorbance of the initial ABTS solution (ABTS%). Trolox was used as an appropriate standard. […]

[4] abbreviates: first UV band listed in the cell (295–334 nm).
The mark [5] stands for this setting: second UV band listed in the cell (330–421 nm).

Consider `O=Cc1cc(F)ccc1[O-].O=Cc1cc(F)ccc1[O-].[Cu+2]` [Complex 1, [Cu(5–F–salo)2]], for which the entries for the “ΔA/Aο, percentage of hyper-/hypo-chromism upon addition of CT DNA” value (shortened to “ΔA/Aο, percentage”) in data set [1] (setting [4]) and in data set [1] (setting [5]) were −34% and −20%, respectively. In addition, the “Solubility in DMSO and DMF” value in data set [2] was “soluble”. Also, the “ABTS%, % ABTS–scavenging activity” value in data set [3] is on record as 78.89 ± 0.18%.

For the compound `O=Cc1cc(F)ccc1[O-].[Cl-].[Cu+2].c1ccc(Nc2ccccn2)nc1` [Complex 2, [Cu(5–F–salo)(bipyam)Cl]], the “ΔA/Aο, percentage” value in data set [1] (setting [4]) was −12%. Besides, the “ΔA/Aο, percentage” value in data set [1] (setting [5]) is on record as “> +50%”. Besides, in data set [2], the “Solubility in DMSO and DMF” value was “soluble”; the “Solubility in MeOH” value is recorded as “partially soluble”. Further, in data set [3], the “ABTS%, % ABTS–scavenging activity” value stood at 48.89 ± 0.38%.

Consider `CO.Cc1ccc2ccc3ccc(C)nc3c2n1.O=Cc1cc(F)ccc1[O-].[Cl-].[Cu+2]` [Complex 3, [Cu(5–F–salo)(neoc)Cl].CH3OH], for which the “ΔA/Aο, percentage” value in data set [1] (setting [4]) is −41%; in data set [1] (setting [5]), “+34%”. Moreover, the “Solubility in DMSO and DMF” value in data set [2] is given as “soluble”. Further, the “Solubility in MeOH” value in data set [2] is listed as “partially soluble”. In data set [3], the “ABTS%, % ABTS–scavenging activity” value was 46.03 ± 0.60%.

Turning to `O=Cc1cc(F)ccc1[O-].O=[N+]([O-])[O-].[Cu+2].c1cnc2c(c1)ccc1cccnc12` [Complex 4, [Cu(5–F–salo)(phen)(NO3)]], the “ΔA/Aο, percentage” value in data set [1] (setting [4]) was −38%; in data set [1] (setting [5]), −29%; in data set [1] (third UV band listed in the cell (405 nm)), “+44%”. Further, the “Solubility in DMSO and DMF” value in data set [2] was “soluble”. Also, the “ABTS%, % ABTS–scavenging activity” value in data set [3] is recorded as 48.14 ± 0.35%.

In the case of `O=Cc1cc(F)ccc1[O-].O=[N+]([O-])[O-].[Cu+2].c1ccc(-c2ccccn2)nc1` [Complex 5, [Cu(5–F–salo)(bipy)(NO3)]], the figures for the “ΔA/Aο, percentage” value in data set [1] (setting [4]) and in data set [1] (setting [5]) were −72% and −28%, respectively. For the same compound, in data set [3], the “ABTS%, % ABTS–scavenging activity” value came to 7.36 ± 0.08%.

(Values after paper PMC9782626, “Copper(II) Complexes of 5–Fluoro–Salicylaldehyde: Synthesis, Characterization, Antioxidant Properties, Interaction with DNA and Serum Albumins” (Molecules, 2022).)
